Measured values taken from ChEMBL document CHEMBL1909046, “DrugMatrix in vitro pharmacology data”.

Columns and labels:
Adenosine receptor A2a = Adenosine receptor A2a (Homo sapiens, UniProt P29274); assay: DRUGMATRIX: Adenosine A2A radioligand binding (ligand: […]); type: cell membranes, Membrane; conditions: hek293; Not Active = under 50% inhibition at 10 µM
Estrogen receptor = target: T1, Estrogen receptor (Homo sapiens, UniProt P03372); conditions: sf9; further: in other assays of this panel Not Active means under 50% inhibition at 10 µM
T1 sequence (P03372 whole entry): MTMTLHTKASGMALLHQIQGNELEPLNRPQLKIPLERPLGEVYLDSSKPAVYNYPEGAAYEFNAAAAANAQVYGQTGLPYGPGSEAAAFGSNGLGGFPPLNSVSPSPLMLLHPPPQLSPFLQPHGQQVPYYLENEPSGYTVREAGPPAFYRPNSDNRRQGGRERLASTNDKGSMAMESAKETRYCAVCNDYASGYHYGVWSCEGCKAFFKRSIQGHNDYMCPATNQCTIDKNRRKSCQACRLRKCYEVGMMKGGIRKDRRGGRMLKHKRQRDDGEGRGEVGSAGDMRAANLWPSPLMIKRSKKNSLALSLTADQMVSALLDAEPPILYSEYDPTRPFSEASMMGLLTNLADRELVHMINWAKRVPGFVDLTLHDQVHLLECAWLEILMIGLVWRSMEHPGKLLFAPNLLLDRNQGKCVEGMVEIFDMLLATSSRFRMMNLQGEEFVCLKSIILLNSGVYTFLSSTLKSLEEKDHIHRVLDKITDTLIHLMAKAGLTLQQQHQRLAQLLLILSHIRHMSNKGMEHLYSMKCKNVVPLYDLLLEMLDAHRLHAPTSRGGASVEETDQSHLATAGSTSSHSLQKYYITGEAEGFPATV

Endothelin-1 receptor = target: T2, Endothelin-1 receptor (Homo sapiens, UniProt P25101); type: cell membranes, CHO-K1, Membrane; conditions: cho-k1; further: in other assays of this panel Not Active means under 50% inhibition at 10 µM
T2 sequence (P25101 whole entry): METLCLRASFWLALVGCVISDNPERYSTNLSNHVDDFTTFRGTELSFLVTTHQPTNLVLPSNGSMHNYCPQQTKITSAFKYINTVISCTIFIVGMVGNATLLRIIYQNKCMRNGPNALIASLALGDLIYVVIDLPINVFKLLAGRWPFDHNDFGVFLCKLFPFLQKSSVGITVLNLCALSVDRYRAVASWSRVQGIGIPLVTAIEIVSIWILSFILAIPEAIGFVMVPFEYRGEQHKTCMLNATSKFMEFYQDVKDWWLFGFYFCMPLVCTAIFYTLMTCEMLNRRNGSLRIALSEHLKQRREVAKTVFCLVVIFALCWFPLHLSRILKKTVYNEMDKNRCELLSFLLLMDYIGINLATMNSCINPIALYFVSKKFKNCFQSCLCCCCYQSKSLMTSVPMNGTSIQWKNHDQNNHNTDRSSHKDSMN

Mu-type opioid receptor = Mu-type opioid receptor (Homo sapiens, UniProt P35372); assay: DRUGMATRIX: Opiate mu (OP3, MOP) radioligand binding (ligand: [3H] Diprenorphine); type: cell membranes, CHO-K1, Membrane; conditions: cho-k1; Not Active = under 50% inhibition at 10 µM
[1] = target: T3, Angiotensin-converting enzyme (Oryctolagus cuniculus, UniProt P12822); type: tissue-based, Lung;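 further: enzymatic inhibition of angiotensin-converting enzyme measured with FAPGG as the substrate; in other assays of this panel Not Active means under 50% inhibition at 10 µM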
T3 sequence (P12822 whole entry): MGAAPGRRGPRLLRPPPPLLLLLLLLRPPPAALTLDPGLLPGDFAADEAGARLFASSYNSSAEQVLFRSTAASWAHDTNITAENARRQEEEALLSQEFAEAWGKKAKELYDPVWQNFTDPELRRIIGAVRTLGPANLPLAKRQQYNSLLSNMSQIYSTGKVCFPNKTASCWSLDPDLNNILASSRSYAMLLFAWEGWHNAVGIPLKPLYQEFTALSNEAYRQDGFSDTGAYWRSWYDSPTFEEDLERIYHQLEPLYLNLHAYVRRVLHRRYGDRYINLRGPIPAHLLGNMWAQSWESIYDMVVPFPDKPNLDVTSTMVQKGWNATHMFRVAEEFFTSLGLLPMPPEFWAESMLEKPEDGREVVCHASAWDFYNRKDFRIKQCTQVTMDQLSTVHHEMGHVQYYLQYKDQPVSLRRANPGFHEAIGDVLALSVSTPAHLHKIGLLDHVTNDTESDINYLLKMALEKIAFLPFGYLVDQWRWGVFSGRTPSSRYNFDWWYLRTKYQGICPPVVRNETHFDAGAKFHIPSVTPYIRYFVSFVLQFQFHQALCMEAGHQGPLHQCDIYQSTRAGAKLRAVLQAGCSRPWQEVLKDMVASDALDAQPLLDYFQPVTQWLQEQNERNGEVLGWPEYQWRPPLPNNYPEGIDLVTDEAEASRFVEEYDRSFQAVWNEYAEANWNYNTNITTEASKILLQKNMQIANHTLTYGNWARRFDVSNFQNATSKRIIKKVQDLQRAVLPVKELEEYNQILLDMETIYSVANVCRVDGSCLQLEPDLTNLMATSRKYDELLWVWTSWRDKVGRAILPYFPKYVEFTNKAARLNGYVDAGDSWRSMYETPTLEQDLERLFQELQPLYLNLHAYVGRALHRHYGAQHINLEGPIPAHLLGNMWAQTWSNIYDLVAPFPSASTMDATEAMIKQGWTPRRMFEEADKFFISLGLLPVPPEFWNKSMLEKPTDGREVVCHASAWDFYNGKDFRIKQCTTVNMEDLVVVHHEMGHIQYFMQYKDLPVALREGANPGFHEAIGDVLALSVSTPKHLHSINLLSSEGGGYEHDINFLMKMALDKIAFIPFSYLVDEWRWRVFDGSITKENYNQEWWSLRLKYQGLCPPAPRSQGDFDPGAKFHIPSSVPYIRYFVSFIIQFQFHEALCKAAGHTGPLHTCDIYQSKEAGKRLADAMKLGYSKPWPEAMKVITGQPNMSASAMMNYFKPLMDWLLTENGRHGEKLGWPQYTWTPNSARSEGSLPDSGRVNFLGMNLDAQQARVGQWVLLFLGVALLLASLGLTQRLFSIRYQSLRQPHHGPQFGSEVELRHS

[2] = target: Receptor tyrosine-protein kinase erbB-2 (Homo sapiens, UniProt P04626); assay: biochemical; type: cell-based, Insect cells; conditions: insect cells;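 further: inhibition of HER2 kinase enzyme activity, measured with Poly(Glu:Tyr) as the phosphorylation substrate; in other assays of this panel Not Active means under 50% inhibition at 10 µM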
[3] = target: T4, 5-hydroxytryptamine receptor 1A (Rattus norvegicus, UniProt P19327); type: cell membranes, CHO-K1, Membrane; further: in other assays of this panel Not Active means under 50% inhibition at 10 µM
T4 sequence (P19327 whole entry): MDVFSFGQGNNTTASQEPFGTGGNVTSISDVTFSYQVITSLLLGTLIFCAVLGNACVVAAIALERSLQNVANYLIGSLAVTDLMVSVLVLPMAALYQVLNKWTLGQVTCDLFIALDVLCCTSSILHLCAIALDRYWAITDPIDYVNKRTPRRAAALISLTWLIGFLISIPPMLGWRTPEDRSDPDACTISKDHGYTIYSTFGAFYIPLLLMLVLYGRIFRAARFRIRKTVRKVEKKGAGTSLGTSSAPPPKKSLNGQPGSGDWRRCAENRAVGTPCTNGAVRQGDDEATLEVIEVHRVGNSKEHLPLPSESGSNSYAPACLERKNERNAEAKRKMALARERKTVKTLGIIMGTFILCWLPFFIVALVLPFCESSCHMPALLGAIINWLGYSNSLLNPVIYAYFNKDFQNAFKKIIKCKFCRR

Sequence of Adenosine receptor A2a (P29274 whole entry): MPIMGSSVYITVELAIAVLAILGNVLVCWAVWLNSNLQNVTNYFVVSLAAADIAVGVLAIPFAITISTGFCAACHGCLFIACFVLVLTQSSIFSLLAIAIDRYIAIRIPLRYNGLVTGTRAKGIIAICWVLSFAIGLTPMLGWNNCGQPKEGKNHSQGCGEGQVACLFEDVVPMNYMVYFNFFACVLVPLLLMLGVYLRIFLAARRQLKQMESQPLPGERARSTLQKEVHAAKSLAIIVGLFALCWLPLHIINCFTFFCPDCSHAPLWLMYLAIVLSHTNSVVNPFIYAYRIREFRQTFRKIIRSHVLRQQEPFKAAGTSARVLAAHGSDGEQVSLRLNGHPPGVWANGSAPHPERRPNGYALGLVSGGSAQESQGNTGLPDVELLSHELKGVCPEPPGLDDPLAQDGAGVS
Sequence of Mu-type opioid receptor (P35372 whole entry): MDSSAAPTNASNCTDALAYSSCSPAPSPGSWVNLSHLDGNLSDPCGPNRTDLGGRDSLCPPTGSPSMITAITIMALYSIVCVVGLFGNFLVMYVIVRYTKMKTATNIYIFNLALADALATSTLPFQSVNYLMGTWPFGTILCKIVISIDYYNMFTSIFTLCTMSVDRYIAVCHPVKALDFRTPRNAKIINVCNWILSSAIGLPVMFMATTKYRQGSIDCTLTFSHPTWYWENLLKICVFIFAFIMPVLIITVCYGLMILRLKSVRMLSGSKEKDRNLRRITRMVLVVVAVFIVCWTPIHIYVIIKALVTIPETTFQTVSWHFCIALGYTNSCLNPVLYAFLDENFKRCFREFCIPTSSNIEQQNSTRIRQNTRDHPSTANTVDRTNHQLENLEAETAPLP

| Compound | IC50 (Adenosine receptor A2a) | IC50 (Estrogen receptor) | IC50 (Endothelin-1 receptor) | IC50 (Mu-type opioid receptor) | IC50 [1] | IC50 [2] | IC50 ([3]; cho-k1) | IC50 ([3]; read-out: IC50) [nM] | Ki ([3]; read-out: Ki) [nM] | Ki (Adenosine receptor A2a) | Ki (Estrogen receptor) | Ki (Endothelin-1 receptor) | Ki [1] | IC50 ([2]; read-out: IC50) [nM] | Ki ([3]; cho-k1) | Ki [2] |
| --- | --- | --- | --- | --- | --- | --- | --- | --- | --- | --- | --- | --- | --- | --- | --- | --- |
| CC(O)CO (centres undefined) [PROPYLENE GLYCOL] | Not Active | Not Active | Not Active | Not Active | Not Active | Not Active | Not Active | – | – | – | – | – | – | – | – | – |
| CC1Cc2ccccc2N1NC(=O)c1ccc(Cl)c(S(N)(=O)=O)c1 (centres undefined) [INDAPAMIDE] | Not Active | Not Active | Not Active | Not Active | Not Active | Not Active | Not Active | – | – | – | – | – | – | – | – | – |
| c1ccc(Nc2ccc(Nc3ccccc3)cc2)cc1 | Not Active | Not Active | Not Active | Not Active | Not Active | Not Active | Not Active | – | – | – | – | – | – | – | – | – |
| CCOc1ccc(NC(C)=O)cc1 [PHENACETIN] | Not Active | Not Active | Not Active | Not Active | Not Active | Not Active | Not Active | – | – | – | – | – | – | – | – | – |
| CC(C)[C@H]1C(=O)N2CCC[C@H]2[C@]2(O)O[C@](NC(=O)[C@@H]3C=C4c5cccc6[nH]cc(c56)C[C@H]4N(C)C3)(C(C)C)C(=O)N12 [ERGOCORNINE] | Not Active | Not Active | Not Active | Not Active | Not Active | Not Active | – | 3.11 | 1.78 | – | – | – | – | – | – | – |
| CCC(C)n1ncn(-c2ccc(N3CCN(c4ccc(OCC5COC(Cn6cncn6)(c6ccc(Cl)cc6Cl)O5)cc4)CC3)cc2)c1=O (centres undefined) [ITRACONAZOLE] | Not Active | Not Active | Not Active | Not Active | Not Active | Not Active | Not Active | – | – | – | – | – | – | – | – | – |
| Cc1onc(O)c1CC(N)C(=O)O (racemic) [(R,S)-AMPA] | Not Active | Not Active | Not Active | Not Active | Not Active | Not Active | Not Active | – | – | – | – | – | – | – | – | – |
| CC1=C2C(=CO[C@H](C)[C@H]2C)C(O)=C(C(=O)O)C1=O [CITRININ] | Not Active | Not Active | Not Active | – | Not Active | Not Active | Not Active | – | – | – | – | – | – | – | – | – |
| Nc1nc2c(ncn2COCCO)c(=O)[nH]1 [ACYCLOVIR] | Not Active | Not Active | Not Active | Not Active | Not Active | Not Active | Not Active | – | – | – | – | – | – | – | – | – |
| CCOC(=O)C1=C(COCCN)NC(C)=C(C(=O)OC)C1c1ccccc1Cl (centres undefined) [AMLODIPINE] | Not Active | Not Active | Not Active | Not Active | Not Active | Not Active | Not Active | – | – | – | – | – | – | – | – | – |
| Cc1ccc(N(CC2=NCCN2)c2cccc(O)c2)cc1 [PHENTOLAMINE] | Not Active | Not Active | Not Active | Not Active | Not Active | Not Active | Not Active | – | – | – | – | – | – | – | – | – |
| CC(C)C(Br)C(=O)NC(N)=O (centres undefined) [BROMISOVALUM] | Not Active | Not Active | Not Active | Not Active | Not Active | Not Active | Not Active | – | – | – | – | – | – | – | – | – |
| Cc1ccc2cc3c(ccc4ccccc43)c3c2c1CC3 [3-METHYLCHOLANTHRENE] | Not Active | Not Active | Not Active | – | Not Active | Not Active | Not Active | – | – | – | – | – | – | – | – | – |
| Cc1ccc(/N=C/N(C)/C=N/c2ccc(C)cc2C)c(C)c1 [AMITRAZ] | Not Active | Not Active | Not Active | – | Not Active | Not Active | Not Active | – | – | – | – | – | – | – | – | – |
| O=C(O)CCCc1ccc(N(CCCl)CCCl)cc1 [CHLORAMBUCIL] | Not Active | Not Active | Not Active | – | Not Active | Not Active | Not Active | – | – | – | – | – | – | – | – | – |
| LIPOPOLYSACCHARIDE E. COLI O55:B5 | Not Active | Not Active | Not Active | – | Not Active | – | Not Active | – | – | Not Active | Not Active | Not Active | Not Active | 449 | Not Active | – |
| CADMIUM ACETATE | Not Active | Not Active | Not Active | – | Not Active | – | Not Active | – | – | Not Active | Not Active | Not Active | Not Active | 1190 | Not Active | – |
| CCCN1C[C@H](CSC)C[C@@H]2c3cccc4[nH]cc(c34)C[C@H]21 [PERGOLIDE] | Not Active | Not Active | Not Active | Not Active | Not Active | Not Active | – | – | – | – | – | – | – | – | – | – |
| LEAD (II) ACETATE | Not Active | Not Active | Not Active | – | Not Active | Not Active | Not Active | – | – | Not Active | Not Active | Not Active | Not Active | – | Not Active | Not Active |
| COc1ccc(C[C@H]2NC[C@H](O)[C@H]2OC(C)=O)cc1 [ANISOMYCIN] | Not Active | Not Active | Not Active | – | Not Active | Not Active | Not Active | – | – | Not Active | Not Active | Not Active | Not Active | – | Not Active | Not Active |
